# From patent US9895363B2, “Methods for modulating function of proliferating cell nuclear antigen (PCNA) and treating cancer with PCNA-targeting compounds” (University of Cincinnati, priority 2010, dated 2018)
# Where two headings read alike, the source gives them in different places.
# Legend:
# [1] = tested on: LNCaP prostate cancer cells; test: Growth inhibition by MTT staining, LNCaP; type: cell-based, Human; settings: 96 h, Table II, Human tumor cells, treated four days, mean of five to seven experiments, read-out: IC50 Values, LNCaP
# Protocol: (§1) Growth inhibitory effects of PCNA-I1 and PCNA-I2 were assessed in human cancer cell lines, mouse cancer cell lines, immortalized mouse cell lines, and human primary cell lines. Specifically, growth inhibitory effects of PCNA-I1 and PCNA-I2 were assessed using MTT staining in the following cells lines: 1) human cancer cell lines including LNCaP (androgen receptor […]), 22Rv1, DU-145, LAPC-4, and PC-3 (androgen receptor […]) prostate cancer cells; MCF-7 and T47D breast cancer cells; A375 and MDA-MB435 melanoma cells; 2) mouse cancer cell lines including TRAMP-C2RE3 prostate cancer cells, B16 and K1735 melanoma cells, UV2237 fibrosarcoma cells, and CT-26 colon cancer cells; 3) immortalized mouse lung cell lines and mouse endothelial cell lines; and 4) primary human cell lines including umbilical endothelial cells (HUVEC, PromoCell, Heidelberg, Germany), primary bone marrow mesenchymal stem cells (HuMSC, PromoCell), primary human mammary epithelial cells (HuBrEC, Lonza, Walkersville, Md.), primary human prostate epithelial cells (HuPrEC, Lonza), and primary mouse spleen lymphocytes (isolated in this laboratory), and primary mouse bone marrow stromal cells (isolated in this laboratory). PCNA-I1 and PCNA-I2 were either provided by the University of Cincinnati Drug Discovery Center (UC-DDC, Cincinnati, Ohio) or were purchased from Chembridge Co (San Diego, Calif.), ChemDiv (San Diego, Calif.), and/or Sigma-Aldrich (St Louis, Mo.).
# Growth inhibitory effects of the compounds were assessed by MTT staining as described previously by Dong et al. in In Vitro Model for Intrinsic Drug Resistance: Effects of Protein Kinase C Activators on the Chemosensitivity of Cultured Human Colon Cancer Cells; Mol. Pharmacol. 1991; 39: 563-9. Briefly, cells were cultured and treated in their respective media. Cells were plated into 96-well plates at 1000 to 5000 cells/well. After an overnight incubation, the cells were treated for four days with various concentrations (up to 10 μM) of PCNA-I1 or PCNA-I2. The live cells were stained with MTT and cells in exponential growth phase were harvested by a one to three minute treatment with a 0.25% trypsin-0.02% EDTA solution. Flasks were tapped to detach the cells, RPMI 1640-10% FBS was added, and the cell suspensions were gently agitated to produce single-cell suspensions. The cell suspensions were washed and resuspended in medium with supplements specified for different cells. Only suspensions of single cells with a viability exceeding 95% (ascertained by trypan blue exclusion) were used.
# (§2) IC50 values were derived from growth inhibition curves. Data for tumor cells are a mean of five to seven experiments. Data for primary cells are a mean of three experiments. […] Inhibition of cell growth was calculated using the formula: growth inhibition (%)=(1−A570 of treated/A570 of control)×100. IC50 (the concentration that inhibited cell growth by 50%) values were also determined. For evaluation of lymphocyte growth in suspension, an Alamar blue assay was performed, wherein freshly prepared mouse spleen lymphocytes were stimulated for 72 H with 2 ug/mL concanavalin A (Sigma Chemicals, St. Louis, […].). During the last 24 H, 20 μl/well of Alamar blue (Invitrogen, Carlsbad, Calif.) was added. The fluorescence intensity was measured at 530/580 (excitation/emission) in the FLUOstar Omega microplate reader (BMG LABTECH, Cary, N.C.).
# Growth inhibitory effects of PCNA-I3, PCNA-I4, PCNA-I6, PCNA-I7, PCNA-I8, PCNA-I9 and PCNA-I10 were assessed in human prostate cancer cell lines. Specifically, growth inhibitory effects of PCNA-I3, PCNA-I4, PCNA-I6, PCNA-I7, PCNA-I8, PCNA-I9 and PCNA-I10 were assessed using MTT staining in LNCaP and PC-3 cells. […]
# [2] = tested on: primary mouse spleen lymphocytes; test: Alamar blue assay of lymphocyte growth; type: cell-based; settings: for IC50: Lymphocyte
# Protocol: as §2
# (§3) The effects of PCNA-I1 on growth of tumor cells versus primary cells was also investigated. Specifically, the effects of PCNA-1I on the growth of primary cells was investigated using primary culture of mouse lymphocytes. An Alamar blue assay was performed with PC-3 cells as a positive control. Freshly prepared mouse spleen lymphocytes were stimulated for 72 H with 2 μg/mL of concanavalin A. During the last 24 H, 20 μL/well of alamar blue was added. The fluorescence intensity was measured at 530/580 (excitation/emission).
# K1735 melanoma cells = test: Growth inhibition by MTT staining, K1735; type: cell-based; settings: 96 h, Mouse, treated four days
# Protocol: as §1, with “PCNA-I1 and PCNA-I2 were either provided by the University of Cincinnati Drug Discovery Center (UC-DDC, Cincinnati, Ohio) or were purchased from Chembridge Co (San Diego, Calif.), ChemDiv (San Diego, Calif.), and/or Sigma-Aldrich (St Louis, Mo.).” left out
# IC50 values were derived from growth inhibition curves. […] Inhibition of cell growth was calculated using the formula: growth inhibition (%)=(1−A570 of treated/A570 of control)×100. […]
# LNCaP cells = test: DNA damage, apoptosis and cell cycle proteins by immunoblot, LNCaP; type: cell-based, Human
# Protocol: Fluorescence-activated cell sorting (FACS) analysis was performed on both PC-3 cells and LNCaP cells using PCNA-I1. Specifically, cells were treated with 1 or 10 μM PCNA-I1 and sampled for the flow cytometry analysis at 24 H, 48 H, and 72 H. Expression of DNA damage and apoptosis-related proteins in PC-3 cells and LNCaP cells was also determined. Cisplatin, a well-known drug that induces DNA damage and apoptosis, was included in the experiment. LNCaP cells were treated for 6 H, 12 H, or 18 H with 10 μM PCNA-I1, 10 μM cisplatin, or both.
# To further explore the differential effects of PCNA-I1 on LNCaP and PC-3 cells, the effects of PCNA-I1 and cisplatin on expression of cell cycle- and apoptosis-related proteins in the two cell lines were compared. LNCaP cells and PC-3 cells were treated with 1 μM PCNA-I1 and/or 5 μM cisplatin for 12 H, 18 H, or 24 H and cell lysates were sampled for immunoblotting.
# PC-3 cells = test: Alamar blue assay, PC-3 cells as positive control; type: cell-based, Human; settings: FIG. 2(B)
# Protocol: as §3
# p21Waf1/Cip1 and PCNA = biological target: T1, p21Waf1/Cip1 and PCNA (Homo sapiens, UniProt P12004); test: Association of p21Waf1/Cip1 to PCNA (immunoprecipitation); type: cell-based; settings: Pc-3 and LNCaP, 0.5 μM, 8 H; FIG. 13
# T1 construct: endogenous in cells; host or cells: PC-3, LNCaP
# T1 sequence (P12004 whole entry): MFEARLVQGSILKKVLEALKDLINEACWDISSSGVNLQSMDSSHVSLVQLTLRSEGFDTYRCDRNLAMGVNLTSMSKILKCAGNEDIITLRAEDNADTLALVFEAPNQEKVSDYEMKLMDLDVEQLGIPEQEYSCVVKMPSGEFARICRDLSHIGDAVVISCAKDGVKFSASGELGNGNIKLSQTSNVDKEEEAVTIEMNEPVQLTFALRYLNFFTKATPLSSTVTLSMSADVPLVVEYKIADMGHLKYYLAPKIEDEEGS
# Protocol: Chromatin-associated trimeric PCNA executes its function through numerous partner proteins, including p21Waf1/Cip1. To validate that treatment with PCNA-I1 reduces function of PCNA, the binding of p21Waf1/Cip1 to PCNA was investigated. Specifically, Pc-3 and LNCaP cells were treated with PCNA-I1 (0.5 μM) for 8 H and lysed in buffer B as previously discussed. Chromatin-associated protein was extracted in buffer D containing 0.42 M NaCl. The chromatin-associated protein was precipitated with the antibody to PCNA, and was resolved in SDS-PAGE, and probed with antibodies to p21Waf1/Cip1 and PCNA.
structure (smiles),measurement,setting,value
Cc1ccsc1C(=O)N/N=C/c1ccc2ccccc2c1O [PCNA-I1],IC50,[1],140 nM
same,IC50,"[2]; FIG. 2(B), Alamar blue assay, mouse spleen lymphocytes, read-out: IC50, lymphocytes",1500 nM
same,IC50,"[2]; Mouse, normal cells, Alamar blue, read-out: IC50 Values, Spleen Lymphocytes",1500 nM
same,Lymphocyte growth at low concentrations,[2]; with or without concanavalin A,promoted lymphocyte growth at concentrations below the cytotoxic or cytostatic doses
same,IC50,K1735 melanoma cells,50 nM
same,Expression of retinoblastoma (Rb) and cyclin D1,"LNCaP cells; LNCaP and PC-3, 1 μM PCNA-I1 and/or 5 μM cisplatin, 12-24 H",moderately downregulated expression of cell cycle-regulating proteins
same,"Phosphorylation of p53, single agent","LNCaP cells; LNCaP, 10 μM",induced
same,Expression of p21 protein,"LNCaP cells; LNCaP, 10 μM PCNA-I1 and/or 10 μM cisplatin",enhanced expression of p21 protein at 6 H and 12 H
same,"PARP cleavage, single agent","LNCaP cells; LNCaP, 10 μM alone",induced PARP cleavage
same,"DNA double strand break (γH2AX induction), single agent","LNCaP cells; LNCaP, 10 μM alone, 6-18 H, FIG. 17(A)",induced moderate double strand break (DSB) of DNA
same,Susceptibility of PC-3 cells relative to lymphocytes,PC-3 cells,approximately three times more susceptible than lymphocytes
same,IC50,"PC-3 cells; Homo sapiens, PC-3, Alamar blue assay",482 nM
same,Level of chromatin-associated PCNA and p21Waf1/Cip1,p21Waf1/Cip1 and PCNA,reduced the level of PCNA and p21Waf1/Cip1
